Test results from the kinase profiling compilation of Christmann-Franck et al. (2016).

Molecular target: MAPKAPK2 (human) (UniProt P49137)
Test: radiometric filter-binding kinase assay, Kinase HotSpot
Settings: compound 0.5 µM; ATP 10 µM

| SMILES | residual activity |
| --- | --- |
| N#C/C(=C1/Nc2ccccc2S1)c1ccnc(NCCc2cccnc2)n1 | 97.8% |
| O=c1c(-c2ccc(F)cc2)c(-c2ccncc2)[nH]n1-c1ccc(Cl)cc1 | 98.5% |
| Cn1cc(/C=C2\C(=O)Nc3ccc(S(N)(=O)=O)cc32)c2ccccc21 | 101% |
| Nc1ncnc2c1cnn2-c1ccccc1 | 98.6% |

Molecular target: MAP4K4 (human) (UniProt O95819)
Test: as above
Settings: compound 0.5 µM; ATP 10 µM

| SMILES | residual activity |
| --- | --- |
| COc1cc2c(N3CCN(C(=O)Nc4ccc(OC(C)C)cc4)CC3)ncnc2cc1OCCCN1CCCCC1 | 96.6% |
| N#C/C(=C1/Nc2ccccc2S1)c1ccnc(NCCc2cccnc2)n1 | 87.1% |
| O=c1c(-c2ccc(F)cc2)c(-c2ccncc2)[nH]n1-c1ccc(Cl)cc1 | 93.5% |
| Cn1cc(/C=C2\C(=O)Nc3ccc(S(N)(=O)=O)cc32)c2ccccc21 | 22.5% |
| Nc1ncnc2c1cnn2-c1ccccc1 | 94.4% |

Molecular target: RIPK2 (human) (UniProt O43353)
Test: as above
Settings: compound 0.5 µM; ATP 10 µM

| SMILES | residual activity |
| --- | --- |
| COc1cc2c(N3CCN(C(=O)Nc4ccc(OC(C)C)cc4)CC3)ncnc2cc1OCCCN1CCCCC1 | 110% |
| O=c1c(-c2ccc(F)cc2)c(-c2ccncc2)[nH]n1-c1ccc(Cl)cc1 | 50.2% |
| Cn1cc(/C=C2\C(=O)Nc3ccc(S(N)(=O)=O)cc32)c2ccccc21 | 74.3% |
| Nc1ncnc2c1cnn2-c1ccccc1 | 93.1% |

Molecular target: SRPK2 (human) (UniProt P78362)
Test: as above
Settings: compound 0.5 µM; ATP 10 µM

| SMILES | residual activity |
| --- | --- |
| COc1cc2c(N3CCN(C(=O)Nc4ccc(OC(C)C)cc4)CC3)ncnc2cc1OCCCN1CCCCC1 | 103% |
| N#C/C(=C1/Nc2ccccc2S1)c1ccnc(NCCc2cccnc2)n1 | 97.1% |
| O=c1c(-c2ccc(F)cc2)c(-c2ccncc2)[nH]n1-c1ccc(Cl)cc1 | 94.4% |
| Cn1cc(/C=C2\C(=O)Nc3ccc(S(N)(=O)=O)cc32)c2ccccc21 | 51.4% |
| Nc1ncnc2c1cnn2-c1ccccc1 | 104% |

Molecular target: EPHB2 (human) (UniProt P29323)
Test: as above
Settings: compound 0.5 µM; ATP 10 µM

| SMILES | residual activity |
| --- | --- |
| COc1cc2c(N3CCN(C(=O)Nc4ccc(OC(C)C)cc4)CC3)ncnc2cc1OCCCN1CCCCC1 | 97.6% |
| N#C/C(=C1/Nc2ccccc2S1)c1ccnc(NCCc2cccnc2)n1 | 112% |
| O=c1c(-c2ccc(F)cc2)c(-c2ccncc2)[nH]n1-c1ccc(Cl)cc1 | 101% |
| Cn1cc(/C=C2\C(=O)Nc3ccc(S(N)(=O)=O)cc32)c2ccccc21 | 84.8% |
| Nc1ncnc2c1cnn2-c1ccccc1 | 96.2% |

Molecular target: PKN1 (human) (UniProt Q16512)
Test: as above
Settings: compound 0.5 µM; ATP 10 µM

| SMILES | residual activity |
| --- | --- |
| COc1cc2c(N3CCN(C(=O)Nc4ccc(OC(C)C)cc4)CC3)ncnc2cc1OCCCN1CCCCC1 | 108% |
| N#C/C(=C1/Nc2ccccc2S1)c1ccnc(NCCc2cccnc2)n1 | 96.3% |
| O=c1c(-c2ccc(F)cc2)c(-c2ccncc2)[nH]n1-c1ccc(Cl)cc1 | 92.4% |
| Cn1cc(/C=C2\C(=O)Nc3ccc(S(N)(=O)=O)cc32)c2ccccc21 | 68.9% |
| Nc1ncnc2c1cnn2-c1ccccc1 | 98.6% |

Molecular target: ITK (human) (UniProt Q08881)
Test: as above
Settings: compound 0.5 µM; ATP 10 µM

| SMILES | residual activity |
| --- | --- |
| COc1cc2c(N3CCN(C(=O)Nc4ccc(OC(C)C)cc4)CC3)ncnc2cc1OCCCN1CCCCC1 | 99% |
| N#C/C(=C1/Nc2ccccc2S1)c1ccnc(NCCc2cccnc2)n1 | 98.8% |
| O=c1c(-c2ccc(F)cc2)c(-c2ccncc2)[nH]n1-c1ccc(Cl)cc1 | 79.7% |
| Cn1cc(/C=C2\C(=O)Nc3ccc(S(N)(=O)=O)cc32)c2ccccc21 | 21.4% |
| Nc1ncnc2c1cnn2-c1ccccc1 | 92.7% |

Molecular target: NEK3 (human) (UniProt P51956)
Test: as above
Settings: compound 0.5 µM; ATP 10 µM

Chain of NEK3 (human) (P51956 whole entry, looked up): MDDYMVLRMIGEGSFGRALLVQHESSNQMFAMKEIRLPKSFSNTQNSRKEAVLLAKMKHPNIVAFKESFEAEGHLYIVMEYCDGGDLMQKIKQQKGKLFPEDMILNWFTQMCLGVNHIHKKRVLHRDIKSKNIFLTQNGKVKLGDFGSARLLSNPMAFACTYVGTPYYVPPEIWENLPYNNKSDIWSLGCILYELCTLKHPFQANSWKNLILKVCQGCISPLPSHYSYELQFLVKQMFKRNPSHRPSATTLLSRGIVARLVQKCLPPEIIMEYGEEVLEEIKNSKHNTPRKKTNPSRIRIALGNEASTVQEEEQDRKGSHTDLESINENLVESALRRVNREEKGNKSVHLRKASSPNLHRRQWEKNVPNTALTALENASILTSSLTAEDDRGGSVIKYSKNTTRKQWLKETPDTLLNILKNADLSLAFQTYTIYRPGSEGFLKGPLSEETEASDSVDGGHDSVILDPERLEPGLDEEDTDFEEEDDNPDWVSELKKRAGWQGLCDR

| SMILES | residual activity |
| --- | --- |
| COc1cc2c(N3CCN(C(=O)Nc4ccc(OC(C)C)cc4)CC3)ncnc2cc1OCCCN1CCCCC1 | 103% |
| N#C/C(=C1/Nc2ccccc2S1)c1ccnc(NCCc2cccnc2)n1 | 87.9% |
| O=c1c(-c2ccc(F)cc2)c(-c2ccncc2)[nH]n1-c1ccc(Cl)cc1 | 100% |
| Cn1cc(/C=C2\C(=O)Nc3ccc(S(N)(=O)=O)cc32)c2ccccc21 | 66.2% |
| Nc1ncnc2c1cnn2-c1ccccc1 | 93.5% |

Molecular target: MAPK13 (human) (UniProt O15264)
Test: as above
Settings: compound 0.5 µM; ATP 10 µM

| SMILES | residual activity |
| --- | --- |
| COc1cc2c(N3CCN(C(=O)Nc4ccc(OC(C)C)cc4)CC3)ncnc2cc1OCCCN1CCCCC1 | 99.3% |
| N#C/C(=C1/Nc2ccccc2S1)c1ccnc(NCCc2cccnc2)n1 | 100% |
| O=c1c(-c2ccc(F)cc2)c(-c2ccncc2)[nH]n1-c1ccc(Cl)cc1 | 102% |
| Cn1cc(/C=C2\C(=O)Nc3ccc(S(N)(=O)=O)cc32)c2ccccc21 | 105% |

Molecular target: CLK2 (human) (UniProt P49760)
Test: as above
Settings: compound 0.5 µM; ATP 10 µM

Chain of CLK2 (human) (P49760 whole entry, looked up): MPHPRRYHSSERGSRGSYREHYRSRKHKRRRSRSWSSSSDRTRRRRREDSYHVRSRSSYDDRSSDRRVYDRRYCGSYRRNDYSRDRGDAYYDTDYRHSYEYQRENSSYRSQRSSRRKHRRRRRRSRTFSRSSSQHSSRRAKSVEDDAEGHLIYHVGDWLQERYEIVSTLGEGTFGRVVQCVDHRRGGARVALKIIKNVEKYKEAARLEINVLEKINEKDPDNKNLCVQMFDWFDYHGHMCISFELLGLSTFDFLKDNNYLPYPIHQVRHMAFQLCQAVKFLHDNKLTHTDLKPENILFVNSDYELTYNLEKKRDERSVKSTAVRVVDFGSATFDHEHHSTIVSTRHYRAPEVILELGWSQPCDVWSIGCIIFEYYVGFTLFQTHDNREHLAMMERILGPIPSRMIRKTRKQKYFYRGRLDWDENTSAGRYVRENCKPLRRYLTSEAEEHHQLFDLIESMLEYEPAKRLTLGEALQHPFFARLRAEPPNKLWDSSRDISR

| SMILES | residual activity |
| --- | --- |
| COc1cc2c(N3CCN(C(=O)Nc4ccc(OC(C)C)cc4)CC3)ncnc2cc1OCCCN1CCCCC1 | 80.7% |
| N#C/C(=C1/Nc2ccccc2S1)c1ccnc(NCCc2cccnc2)n1 | 48.5% |
| O=c1c(-c2ccc(F)cc2)c(-c2ccncc2)[nH]n1-c1ccc(Cl)cc1 | 99% |
| Cn1cc(/C=C2\C(=O)Nc3ccc(S(N)(=O)=O)cc32)c2ccccc21 | 38.1% |
| Nc1ncnc2c1cnn2-c1ccccc1 | 91.4% |

Molecular target: TYK2 JH1 catalytic (human) (UniProt P29597)
Test: as above
Settings: compound 0.5 µM; ATP 10 µM

| SMILES | residual activity |
| --- | --- |
| COc1cc2c(N3CCN(C(=O)Nc4ccc(OC(C)C)cc4)CC3)ncnc2cc1OCCCN1CCCCC1 | 97.9% |
| N#C/C(=C1/Nc2ccccc2S1)c1ccnc(NCCc2cccnc2)n1 | 83.2% |
| O=c1c(-c2ccc(F)cc2)c(-c2ccncc2)[nH]n1-c1ccc(Cl)cc1 | 90.9% |
| Cn1cc(/C=C2\C(=O)Nc3ccc(S(N)(=O)=O)cc32)c2ccccc21 | 35% |
| Nc1ncnc2c1cnn2-c1ccccc1 | 86.7% |

Molecular target: PLK3 (human) (UniProt Q9H4B4)
Test: as above
Settings: compound 0.5 µM; ATP 10 µM

Chain of PLK3 (human) (Q9H4B4 whole entry, looked up): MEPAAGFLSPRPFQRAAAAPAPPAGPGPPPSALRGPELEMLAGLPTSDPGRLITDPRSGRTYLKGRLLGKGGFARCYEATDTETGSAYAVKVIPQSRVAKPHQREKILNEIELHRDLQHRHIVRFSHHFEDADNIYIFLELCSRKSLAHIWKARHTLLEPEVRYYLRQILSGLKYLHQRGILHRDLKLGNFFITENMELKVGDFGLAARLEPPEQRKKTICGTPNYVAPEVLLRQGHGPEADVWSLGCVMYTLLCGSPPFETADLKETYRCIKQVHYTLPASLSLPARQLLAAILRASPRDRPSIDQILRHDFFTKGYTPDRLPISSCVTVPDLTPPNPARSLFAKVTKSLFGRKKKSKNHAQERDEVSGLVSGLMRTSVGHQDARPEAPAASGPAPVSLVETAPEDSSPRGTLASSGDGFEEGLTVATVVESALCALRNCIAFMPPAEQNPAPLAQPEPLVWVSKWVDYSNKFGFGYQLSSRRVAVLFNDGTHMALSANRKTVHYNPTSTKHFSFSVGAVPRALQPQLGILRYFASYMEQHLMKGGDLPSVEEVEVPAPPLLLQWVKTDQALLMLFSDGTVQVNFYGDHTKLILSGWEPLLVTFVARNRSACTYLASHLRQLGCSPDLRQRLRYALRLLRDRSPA

| SMILES | residual activity |
| --- | --- |
| COc1cc2c(N3CCN(C(=O)Nc4ccc(OC(C)C)cc4)CC3)ncnc2cc1OCCCN1CCCCC1 | 99.3% |
| N#C/C(=C1/Nc2ccccc2S1)c1ccnc(NCCc2cccnc2)n1 | 94.7% |
| O=c1c(-c2ccc(F)cc2)c(-c2ccncc2)[nH]n1-c1ccc(Cl)cc1 | 96.3% |
| Cn1cc(/C=C2\C(=O)Nc3ccc(S(N)(=O)=O)cc32)c2ccccc21 | 99% |
| Nc1ncnc2c1cnn2-c1ccccc1 | 94.6% |

Molecular target: GRK5 (human) (UniProt P34947)
Test: as above
Settings: compound 0.5 µM; ATP 10 µM

Chain of GRK5 (human) (P34947 whole entry, looked up): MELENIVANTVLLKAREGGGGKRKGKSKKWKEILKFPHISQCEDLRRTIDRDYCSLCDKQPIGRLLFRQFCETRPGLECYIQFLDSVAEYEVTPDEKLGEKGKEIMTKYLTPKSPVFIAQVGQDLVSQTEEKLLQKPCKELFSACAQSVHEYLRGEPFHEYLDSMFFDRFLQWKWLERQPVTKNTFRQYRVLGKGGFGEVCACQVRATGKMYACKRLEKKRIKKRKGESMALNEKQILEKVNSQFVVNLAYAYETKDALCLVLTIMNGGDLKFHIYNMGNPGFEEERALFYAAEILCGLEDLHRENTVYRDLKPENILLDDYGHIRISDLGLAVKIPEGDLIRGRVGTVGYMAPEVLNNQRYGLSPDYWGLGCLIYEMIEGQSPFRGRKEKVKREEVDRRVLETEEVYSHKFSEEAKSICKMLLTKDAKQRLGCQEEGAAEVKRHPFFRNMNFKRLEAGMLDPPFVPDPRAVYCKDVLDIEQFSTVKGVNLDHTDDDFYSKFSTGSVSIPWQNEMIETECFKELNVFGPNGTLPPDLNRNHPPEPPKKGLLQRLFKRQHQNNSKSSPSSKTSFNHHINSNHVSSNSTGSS

| SMILES | residual activity |
| --- | --- |
| COc1cc2c(N3CCN(C(=O)Nc4ccc(OC(C)C)cc4)CC3)ncnc2cc1OCCCN1CCCCC1 | 106% |
| N#C/C(=C1/Nc2ccccc2S1)c1ccnc(NCCc2cccnc2)n1 | 93.8% |
| O=c1c(-c2ccc(F)cc2)c(-c2ccncc2)[nH]n1-c1ccc(Cl)cc1 | 90.3% |
| Cn1cc(/C=C2\C(=O)Nc3ccc(S(N)(=O)=O)cc32)c2ccccc21 | 86.3% |
| Nc1ncnc2c1cnn2-c1ccccc1 | 104% |

Molecular target: PRKCE (human) (UniProt Q02156)
Test: as above
Settings: compound 0.5 µM; ATP 10 µM

Chain of PRKCE (human) (Q02156 whole entry, looked up): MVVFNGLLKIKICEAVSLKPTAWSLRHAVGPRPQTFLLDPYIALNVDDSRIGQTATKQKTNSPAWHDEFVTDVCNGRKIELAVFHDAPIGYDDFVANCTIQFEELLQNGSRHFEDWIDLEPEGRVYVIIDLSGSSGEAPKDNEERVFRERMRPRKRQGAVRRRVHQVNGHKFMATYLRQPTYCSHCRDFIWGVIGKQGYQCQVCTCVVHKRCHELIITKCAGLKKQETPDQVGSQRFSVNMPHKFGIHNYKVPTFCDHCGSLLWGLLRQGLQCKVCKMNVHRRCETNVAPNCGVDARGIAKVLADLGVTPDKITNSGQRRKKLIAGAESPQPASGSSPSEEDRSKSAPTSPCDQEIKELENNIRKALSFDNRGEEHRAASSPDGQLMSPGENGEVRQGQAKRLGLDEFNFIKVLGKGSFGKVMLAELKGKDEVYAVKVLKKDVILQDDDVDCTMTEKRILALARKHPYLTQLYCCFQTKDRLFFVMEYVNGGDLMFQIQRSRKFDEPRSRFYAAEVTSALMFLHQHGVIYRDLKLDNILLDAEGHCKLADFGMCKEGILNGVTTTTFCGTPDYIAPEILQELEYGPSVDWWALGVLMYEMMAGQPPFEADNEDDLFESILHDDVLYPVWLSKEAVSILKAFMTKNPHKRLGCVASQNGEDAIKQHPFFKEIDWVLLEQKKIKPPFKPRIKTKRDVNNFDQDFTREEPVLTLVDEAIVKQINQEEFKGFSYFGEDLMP

| SMILES | residual activity |
| --- | --- |
| COc1cc2c(N3CCN(C(=O)Nc4ccc(OC(C)C)cc4)CC3)ncnc2cc1OCCCN1CCCCC1 | 104% |
| N#C/C(=C1/Nc2ccccc2S1)c1ccnc(NCCc2cccnc2)n1 | 92.1% |
| O=c1c(-c2ccc(F)cc2)c(-c2ccncc2)[nH]n1-c1ccc(Cl)cc1 | 96.7% |
| Cn1cc(/C=C2\C(=O)Nc3ccc(S(N)(=O)=O)cc32)c2ccccc21 | 77.3% |
| Nc1ncnc2c1cnn2-c1ccccc1 | 98.3% |

Molecular target: FYN (human) (UniProt P06241)
Test: as above
Settings: compound 0.5 µM; ATP 10 µM

Chain of FYN (human) (P06241 whole entry, looked up): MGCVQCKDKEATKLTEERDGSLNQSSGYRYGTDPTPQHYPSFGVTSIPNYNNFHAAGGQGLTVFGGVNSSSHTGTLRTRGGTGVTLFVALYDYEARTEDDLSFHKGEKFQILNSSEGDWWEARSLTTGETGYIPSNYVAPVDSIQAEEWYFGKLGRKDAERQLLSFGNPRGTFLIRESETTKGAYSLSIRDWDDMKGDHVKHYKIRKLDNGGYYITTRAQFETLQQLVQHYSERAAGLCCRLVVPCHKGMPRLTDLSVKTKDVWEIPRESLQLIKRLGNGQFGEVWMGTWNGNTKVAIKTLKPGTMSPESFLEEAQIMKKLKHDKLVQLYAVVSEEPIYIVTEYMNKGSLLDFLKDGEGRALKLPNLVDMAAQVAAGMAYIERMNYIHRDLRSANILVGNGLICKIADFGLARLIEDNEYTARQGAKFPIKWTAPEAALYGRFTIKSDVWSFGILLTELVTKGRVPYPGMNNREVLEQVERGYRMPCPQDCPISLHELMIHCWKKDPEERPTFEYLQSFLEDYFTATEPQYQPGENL

| SMILES | residual activity |
| --- | --- |
| COc1cc2c(N3CCN(C(=O)Nc4ccc(OC(C)C)cc4)CC3)ncnc2cc1OCCCN1CCCCC1 | 94.8% |
| N#C/C(=C1/Nc2ccccc2S1)c1ccnc(NCCc2cccnc2)n1 | 93.1% |
| O=c1c(-c2ccc(F)cc2)c(-c2ccncc2)[nH]n1-c1ccc(Cl)cc1 | 94.8% |
| Cn1cc(/C=C2\C(=O)Nc3ccc(S(N)(=O)=O)cc32)c2ccccc21 | 45.7% |
| Nc1ncnc2c1cnn2-c1ccccc1 | 97.8% |

Molecular target: MAPKAPK3 (human) (UniProt Q16644)
Test: as above
Settings: compound 0.5 µM; ATP 10 µM

Chain of MAPKAPK3 (human) (Q16644 whole entry, looked up): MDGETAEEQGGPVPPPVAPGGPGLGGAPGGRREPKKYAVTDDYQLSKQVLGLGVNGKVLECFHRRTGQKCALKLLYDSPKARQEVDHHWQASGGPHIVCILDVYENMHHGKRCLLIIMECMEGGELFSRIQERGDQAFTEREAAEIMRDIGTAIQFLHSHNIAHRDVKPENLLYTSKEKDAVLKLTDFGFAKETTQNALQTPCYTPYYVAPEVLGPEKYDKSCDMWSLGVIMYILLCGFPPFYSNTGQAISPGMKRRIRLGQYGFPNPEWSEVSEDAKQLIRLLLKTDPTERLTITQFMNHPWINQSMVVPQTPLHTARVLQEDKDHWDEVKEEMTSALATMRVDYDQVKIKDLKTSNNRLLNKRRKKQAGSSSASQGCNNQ

| SMILES | residual activity |
| --- | --- |
| COc1cc2c(N3CCN(C(=O)Nc4ccc(OC(C)C)cc4)CC3)ncnc2cc1OCCCN1CCCCC1 | 103% |
| N#C/C(=C1/Nc2ccccc2S1)c1ccnc(NCCc2cccnc2)n1 | 102% |
| O=c1c(-c2ccc(F)cc2)c(-c2ccncc2)[nH]n1-c1ccc(Cl)cc1 | 101% |
| Cn1cc(/C=C2\C(=O)Nc3ccc(S(N)(=O)=O)cc32)c2ccccc21 | 91.5% |
| Nc1ncnc2c1cnn2-c1ccccc1 | 96.6% |

Molecular target: FGFR2 (human) (UniProt P21802)
Test: as above
Settings: compound 0.5 µM; ATP 10 µM

| SMILES | residual activity |
| --- | --- |
| COc1cc2c(N3CCN(C(=O)Nc4ccc(OC(C)C)cc4)CC3)ncnc2cc1OCCCN1CCCCC1 | 99.8% |
| N#C/C(=C1/Nc2ccccc2S1)c1ccnc(NCCc2cccnc2)n1 | 102% |
| O=c1c(-c2ccc(F)cc2)c(-c2ccncc2)[nH]n1-c1ccc(Cl)cc1 | 94% |
| Cn1cc(/C=C2\C(=O)Nc3ccc(S(N)(=O)=O)cc32)c2ccccc21 | 50.5% |
| Nc1ncnc2c1cnn2-c1ccccc1 | 100% |

Molecular target: CSNK1D (human) (UniProt P48730)
Test: as above
Settings: compound 0.5 µM; ATP 10 µM

| SMILES | residual activity |
| --- | --- |
| COc1cc2c(N3CCN(C(=O)Nc4ccc(OC(C)C)cc4)CC3)ncnc2cc1OCCCN1CCCCC1 | 90.9% |
| N#C/C(=C1/Nc2ccccc2S1)c1ccnc(NCCc2cccnc2)n1 | 65% |
| O=c1c(-c2ccc(F)cc2)c(-c2ccncc2)[nH]n1-c1ccc(Cl)cc1 | 26.7% |
| Cn1cc(/C=C2\C(=O)Nc3ccc(S(N)(=O)=O)cc32)c2ccccc21 | 102% |
| Nc1ncnc2c1cnn2-c1ccccc1 | 79.5% |

Molecular target: SGK2 (human) (UniProt Q9HBY8)
Test: as above
Settings: compound 0.5 µM; ATP 10 µM

| SMILES | residual activity |
| --- | --- |
| COc1cc2c(N3CCN(C(=O)Nc4ccc(OC(C)C)cc4)CC3)ncnc2cc1OCCCN1CCCCC1 | 105% |
| N#C/C(=C1/Nc2ccccc2S1)c1ccnc(NCCc2cccnc2)n1 | 100% |
| O=c1c(-c2ccc(F)cc2)c(-c2ccncc2)[nH]n1-c1ccc(Cl)cc1 | 94.3% |
| Cn1cc(/C=C2\C(=O)Nc3ccc(S(N)(=O)=O)cc32)c2ccccc21 | 80.7% |
| Nc1ncnc2c1cnn2-c1ccccc1 | 98.4% |

Molecular target: MATK (human) (UniProt P42679)
Test: as above
Settings: compound 0.5 µM; ATP 10 µM

Chain of MATK (human) (P42679 whole entry, looked up): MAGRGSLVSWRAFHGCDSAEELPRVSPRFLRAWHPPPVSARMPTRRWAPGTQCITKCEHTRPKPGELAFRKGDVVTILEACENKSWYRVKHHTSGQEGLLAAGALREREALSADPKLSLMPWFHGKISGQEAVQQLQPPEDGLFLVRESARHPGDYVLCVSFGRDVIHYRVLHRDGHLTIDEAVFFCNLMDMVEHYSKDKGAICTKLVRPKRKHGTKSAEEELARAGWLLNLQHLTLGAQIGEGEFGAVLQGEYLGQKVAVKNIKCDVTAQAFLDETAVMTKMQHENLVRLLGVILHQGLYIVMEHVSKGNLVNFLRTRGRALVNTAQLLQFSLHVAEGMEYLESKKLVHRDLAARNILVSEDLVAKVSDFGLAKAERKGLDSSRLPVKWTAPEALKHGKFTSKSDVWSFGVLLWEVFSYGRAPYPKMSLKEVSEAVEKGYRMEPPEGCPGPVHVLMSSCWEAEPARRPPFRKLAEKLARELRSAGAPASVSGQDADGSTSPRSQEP

| SMILES | residual activity |
| --- | --- |
| COc1cc2c(N3CCN(C(=O)Nc4ccc(OC(C)C)cc4)CC3)ncnc2cc1OCCCN1CCCCC1 | 79.4% |
| N#C/C(=C1/Nc2ccccc2S1)c1ccnc(NCCc2cccnc2)n1 | 89.8% |
| O=c1c(-c2ccc(F)cc2)c(-c2ccncc2)[nH]n1-c1ccc(Cl)cc1 | 86% |
| Cn1cc(/C=C2\C(=O)Nc3ccc(S(N)(=O)=O)cc32)c2ccccc21 | 103% |
| Nc1ncnc2c1cnn2-c1ccccc1 | 89.9% |

Molecular target: YES1 (human) (UniProt P07947)
Test: as above
Settings: compound 0.5 µM; ATP 10 µM

Chain of YES1 (human) (P07947 whole entry, looked up): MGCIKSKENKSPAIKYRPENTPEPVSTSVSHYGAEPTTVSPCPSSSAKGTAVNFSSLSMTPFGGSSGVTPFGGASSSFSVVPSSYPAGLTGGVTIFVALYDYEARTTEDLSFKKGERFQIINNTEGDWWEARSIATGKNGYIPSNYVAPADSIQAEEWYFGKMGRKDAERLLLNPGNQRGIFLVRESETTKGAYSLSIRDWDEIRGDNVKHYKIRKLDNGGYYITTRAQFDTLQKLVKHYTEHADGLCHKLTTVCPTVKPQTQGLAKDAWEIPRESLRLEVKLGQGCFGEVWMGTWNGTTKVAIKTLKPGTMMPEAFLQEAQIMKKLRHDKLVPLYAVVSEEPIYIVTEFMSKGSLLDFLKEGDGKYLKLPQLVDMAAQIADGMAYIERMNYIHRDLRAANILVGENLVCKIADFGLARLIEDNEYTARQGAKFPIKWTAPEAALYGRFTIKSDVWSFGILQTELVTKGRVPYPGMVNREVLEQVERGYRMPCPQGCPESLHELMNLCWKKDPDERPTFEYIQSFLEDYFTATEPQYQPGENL

| SMILES | residual activity |
| --- | --- |
| COc1cc2c(N3CCN(C(=O)Nc4ccc(OC(C)C)cc4)CC3)ncnc2cc1OCCCN1CCCCC1 | 86.6% |
| N#C/C(=C1/Nc2ccccc2S1)c1ccnc(NCCc2cccnc2)n1 | 89.1% |
| O=c1c(-c2ccc(F)cc2)c(-c2ccncc2)[nH]n1-c1ccc(Cl)cc1 | 85.1% |
| Cn1cc(/C=C2\C(=O)Nc3ccc(S(N)(=O)=O)cc32)c2ccccc21 | 24.2% |
| Nc1ncnc2c1cnn2-c1ccccc1 | 93.7% |
